Assay results: patent publication US20120165304A1, “6,7,8,9-Tetrahydro-5H-1,4,7,10a-tetraaza-cyclohept[f]indene derivatives, pharmaceutical compositions containing these compounds, their use and processes for preparing them” (BOEHRINGER INGELHEIM INTERNATIONAL GMBH, priority 2008, published 2012)

Biological target: human 5-HT2C receptor (Homo sapiens, UniProt P28335, I156V/I160V/N158S)
Assay: cell-based

Sequence of human 5-HT2C receptor (P28335 33-458 I156V/N158S/I160V limits assumed): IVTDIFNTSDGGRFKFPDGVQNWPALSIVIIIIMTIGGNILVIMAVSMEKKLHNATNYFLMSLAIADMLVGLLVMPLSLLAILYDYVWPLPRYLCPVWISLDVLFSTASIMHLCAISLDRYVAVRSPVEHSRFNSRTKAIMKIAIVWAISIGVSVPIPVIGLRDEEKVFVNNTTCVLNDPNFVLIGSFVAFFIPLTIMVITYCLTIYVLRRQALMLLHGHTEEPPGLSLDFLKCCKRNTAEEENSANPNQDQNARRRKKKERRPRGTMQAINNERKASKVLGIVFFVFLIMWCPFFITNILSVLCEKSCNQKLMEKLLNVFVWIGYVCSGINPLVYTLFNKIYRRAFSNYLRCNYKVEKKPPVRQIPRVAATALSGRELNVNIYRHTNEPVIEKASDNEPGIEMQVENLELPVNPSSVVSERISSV

Compound	EC50
O=C(C1CN(c2c3c(nc4ccnn24)CCNCC3)C1)N1CC2CC(c3ccccc3)(C2)C1 [Example 31.232]	95 nM
Cc1ccc(F)c(OCC2CN(c3c4c(nc5ccnn35)CCNCC4)C2)c1F [Example 15.24]	54 nM
CCOc1cccc(OC2CN(c3c4c(nc5ccnn35)CCNCC4)C2)c1 [Example 35.27]	93 nM
Cc1cnn2c(N3CC(C(=O)N4CCC5(CC4)OCc4ccccc45)C3)c3c(nc12)CCNCC3 [Example 31.242]	86 nM
CN(C)C(=O)[C@@H]1CCN(c2c3c(nc4ccnn24)CCNCC3)C1 [Example 1.62]	2070 nM
CCCN(C)C(=O)C1CN(c2c3c(nc4ccnn24)CCNCC3)C1 [Example 31.66]	360 nM
CC(C)NC1CCN(C(=O)C2CN(c3c4c(nc5ccnn35)CCNCC4)C2)CC1 [Example 37.21]	2 nM
O=C(C1CN(c2c3c(nc4ccnn24)CCNCC3)C1)N1CCC(c2cc(Cl)cc(Cl)c2)CC1 [Example 31.214]	471 nM
CN1CCc2nc3ccnn3c(N3CC(C(=O)N4CC(N(C)C)C4)C3)c2CC1 [Example 36.48]	269 nM
O=C(C1CN(c2c3c(nc4ccnn24)CCNCC3)C1)N1CCCC1c1ccccc1 (centres unmarked) [Example 31.45]	575 nM
c1cc2nc3c(c(N4CC(OCC5CCCCC5)C4)n2n1)CCNCC3 [Example 20.4]	543 nM
O=C(NCc1ccc(OC(F)F)cc1)C1CN(c2c3c(nc4ccnn24)CCNCC3)C1 [Example 37.97]	8 nM
CC(C)(C)C1CCN(C(=O)C2CN(c3c4c(nc5ccnn35)CCNCC4)C2)CC1 [Example 31.121]	22 nM
CN(c1ccccc1)C1CCN(C(=O)C2CN(c3c4c(nc5ccnn35)CCNCC4)C2)CC1 [Example 37.46]	2 nM
O=C(C1CN(c2c3c(nc4ccnn24)CCNCC3)C1)N1CCCC(c2ccccc2F)C1 (centres unmarked) [Example 31.117]	291 nM
CC1Cc2ccccc2N1C(=O)C1CN(c2c3c(nc4ccnn24)CCNCC3)C1 (centres unmarked) [Example 31.234]	380 nM
Cc1cc(OC2CN(c3c4c(nc5ccnn35)CCNCC4)C2)cc(C)n1 [Example 35.23]	105 nM
CC(=O)N(C)C1CCN(C(=O)C2CN(c3c4c(nc5ccnn35)CCNCC4)C2)CC1 [Example 37.30]	8 nM
CC(C)CCN(C)C(=O)C1CN(c2c3c(nc4ccnn24)CCNCC3)C1 [Example 31.74]	175 nM

Compound	EC50
CN(C(=O)C1CN(c2c3c(nc4ccnn24)CCNCC3)C1)C1CC1 [Example 31.10]	1670 nM
O=C(C1CN(c2c3c(nc4ccnn24)CCNCC3)C1)N1C[C@@H]2C[C@H]1CN2 [Example 37.28]	6 nM
COc1ccccc1OCC1CN(c2c3c(nc4ccnn24)CCNCC3)C1 [Example 15.21]	29 nM
CN(Cc1ccc(C#N)cc1)C(=O)C1CN(c2c3c(nc4ccnn24)CCNCC3)C1 [Example 31.2]	14 nM
Cc1cnn2c(N3CCC3)c3c(nc12)CCNCC3 [Example 27, 10-Azetidin-1-yl-3-methyl-6,7,8,9-tetrahydro-5H-1,4,7,10a-tetraaza-cyclohepta[f]indene]	49 nM
C[C@@H]1C[C@H](C)CN(C(=O)C2CN(c3c4c(nc5ccnn35)CCNCC4)C2)C1 [Example 31.180]	36 nM
O=C(C1CN(c2c3c(nc4ccnn24)CCNCC3)C1)N1CC[C@@H]2CCCC[C@@H]2C1 [Example 31.131]	74 nM
CCN1CCN(C(=O)C2CN(c3c4c(nc5ccnn35)CCN(C)CC4)C2)CC1 [Example 36.1, (4-Ethyl-piperazin-1-yl)-[1-(7-methyl-6,7,8,9-tetrahydro-5H-1,4,7,10a-tetraaza-cyclohepta[f]inden-10-yl)-azetidin-3-yl]-methanone]	69 nM
CC(C)C1CCN(C(=O)C2CN(c3c4c(nc5ccnn35)CCNCC4)C2)CC1 [Example 31.85]	23 nM
O=C(C1CN(c2c3c(nc4ccnn24)CCNCC3)C1)N1CCC(C(F)(F)F)C1 (centres unmarked) [Example 31.95]	41 nM
C#CCN1CCN(C(=O)C2CN(c3c4c(nc5ccnn35)CCNCC4)C2)CC1 [Example 37.39]	7 nM
O=C(C1CN(c2c3c(nc4ccnn24)CCNCC3)C1)N1CCc2ccccc2C1 [Example 31.60]	57 nM
CN1CCc2nc3ccnn3c(N3CC(C(=O)N4CCN(C(=O)C5CCCC5)CC4)C3)c2CC1 [Example 36.58]	447 nM
COc1ccccc1OC1CN(c2c3c(nc4ccnn24)CCNCC3)C1 [Example 35.54]	85 nM
O=C(NC1(c2ccc(F)cc2)CC1)C1CN(c2c3c(nc4ccnn24)CCNCC3)C1 [Example 31.93]	786 nM
Clc1cccnc1OC1CN(c2c3c(nc4ccnn24)CCNCC3)C1 [Example 20.11]	116 nM
COc1ccc(OCC2CN(c3c4c(nc5ccnn35)CCNCC4)C2)c(F)c1 [Example 15.9]	7 nM
CN1CCc2nc3ccnn3c(N3CC(C(=O)NCCCC(F)(F)F)C3)c2CC1 [Example 36.47]	130 nM
O=C(C1CN(c2c3c(nc4ccnn24)CCNCC3)C1)N1CCC(Cc2ccc(Cl)cc2)C1 (centres unmarked) [Example 31.120]	103 nM

Compound	EC50
CC(=O)N1CCN(C(=O)C2CN(c3c4c(nc5ccnn35)CCNCC4)C2)CC1 [Example 37.36]	10 nM
CC1(C)CC2CC(C)(CN2C(=O)C2CN(c3c4c(nc5ccnn35)CCNCC4)C2)C1 (centres unmarked) [Example 31.25]	1510 nM
CC1CCCC(NC(=O)C2CN(c3c4c(nc5ccnn35)CCNCC4)C2)C1 (centres unmarked) [Example 37.70]	69 nM
O=C(C1CN(c2c3c(nc4c(Br)cnn24)CCNCC3)C1)N1CCC2(CCCCC2)CC1 [Example 31.132]	254 nM
O=C(C1CCCN(c2c3c(nc4ccnn24)CCNCC3)C1)N1CCCCC1 (centres unmarked) [Example 1.61]	4710 nM
CN(Cc1ccn(C)n1)C(=O)C1CN(c2c3c(nc4ccnn24)CCNCC3)C1 [Example 31.54]	107 nM
Cc1ccc(F)c(OCC2CN(c3c4c(nc5ccnn35)CCNCC4)C2)c1 [Example 15.5]	7 nM
CN(CCC1CCCCC1)C(=O)C1CN(c2c3c(nc4ccnn24)CCNCC3)C1 [Example 31.84]	126 nM
c1cncc(Cn2c(C3CN(c4c5c(nc6ccnn46)CCNCC5)C3)nc3ccccc32)c1 [Example 34.27]	46 nM
CC1CC(c2ccccc2)CN1C(=O)C1CN(c2c3c(nc4ccnn24)CCNCC3)C1 (centres unmarked) [Example 31.128]	54 nM
CCOc1ccc(OC2CN(c3c4c(nc5ccnn35)CCNCC4)C2)cc1 [Example 35.53]	324 nM
COc1ccc2cc(OC3CN(c4c5c(nc6ccnn46)CCNCC5)C3)ccc2c1 [Example 35.13]	1360 nM
c1ccc2sc(C3CN(c4c5c(nc6ccnn46)CCNCC5)C3)nc2c1 [Example 12, 10-(3-Benzothiazol-2-yl-azetidin-1-yl)-6,7,8,9-tetrahydro-5H-1,4,7,10a-tetraaza-cyclohepta[f]indene]	253 nM
Clc1ccccc1OC1CN(c2c3c(nc4ccnn24)CCNCC3)C1 [Example 35.3]	98 nM
FC(F)(F)c1ccccc1OC1CN(c2c3c(nc4ccnn24)CCNCC3)C1 [Example 35.31]	129 nM
O=C(C1CN(c2c3c(nc4ccnn24)CCNCC3)C1)N1CCN(C2CCOCC2)CC1 [Example 37.31]	7 nM
CC1(C)CCN(C(=O)C2CN(c3c4c(nc5c(Br)cnn35)CCNCC4)C2)CC1 [Example 31.138]	71 nM
CC1CC(C)CN(C(=O)C2CN(c3c4c(nc5ccnn35)CCNCC4)C2)C1 (centres unmarked) [Example 31.22]	85 nM
